Source: PMC8699718, “A structurally conserved site in AUP1 binds the E2 enzyme UBE2G2 and is essential for ER-associated degradation” (PLoS Biology, 2021)
Ends that are not written are not given here.

Test system: NHK (Null Hong Kong variant of alpha1-antitrypsin)
Assay: CHX chase: NHK degradation in HT1080 AUP1 KO cells
Type: cell-based, human
Method: Fig 1 The G2BR of AUP1 is required for ERAD of NHK. (A) HT1080 or cells in which HRD1 was knocked out by CRISPR/Cas-9 (HRD1 KO) were transfected with plasmid encoding carboxyl-terminally HA-tagged NHK. Cells were treated with CHX for the indicated times to inhibit protein synthesis and NHK-HA degradation monitored by western blot. GFP and HSP60 serve as transfection efficiency and gel loading controls, respectively. (B) HT1080 or cells in which either AUP1 or gp78 was knocked out (AUP1 KO or gp78 KO) were transfected with NHK-HA and their degradation assessed. (C) AUP1 KO cells were transfected with NHK-HA and empty vector or plasmid encoding carboxyl-terminally FLAG-tagged AUP1 and NHK degradation assessed. (D) Indicated cells were transfected with plasmid encoding carboxyl-terminally MYC-tagged INSIG-1 and assessed for INSIG-1 degradation. (E) Schematic representation of AUP1 in the ER membrane and deletion mutants used in subsequent experiments. Amino acid residues are numbered spanning each domain. (F) AUP1 KO cells were transfected with NHK-HA and plasmids encoding the indicated FLAG-tagged AUP1 WT or deletion mutants and assessed for NHK degradation. (G) HEK293 (Parental) or HEK293 AUP1 KO cells were assessed for degradation of NHK-HA. (H) HEK293 AUP1 KO cells were assessed for NHK-HA degradation as in (F). Markers represent apparent molecular weight in kDa. The data underlying this figure can be found in S1 Data. aa, amino acid; AUP1, ancient ubiquitous protein 1; CHX, cycloheximide; ER, endoplasmic reticulum; ERAD, endoplasmic reticulum–associated degradation; G2BR, UBE2G2 Binding Region; KO, knockout; NHK, Null Hong Kong; WT, wild type.
Fig 6 Disruption of UBE2G2:G2BR^AUP1 interaction abrogates AUP1 function in cells. (A) GST or indicated GST-AUP1 fusions (aa 292 to 410, expression shown in Coomassie-stained gel) were immobilized on glutathione beads and binding to ^35S-UBE2G2 was assessed as in Fig 3A. Mutations include 2A (R382A/Q383A), 2E (R382E/Q383E), and 5E (R382E/Q383E/K390E/R398E/R400E). (B) AUP1 KO cells were transfected with NHK-HA and forms of full-length AUP1-FLAG with the indicated point mutations from (A) and NHK degradation assessed by CHX chase. (C) Binding assay performed as in (A) with AUP1 mutants predicted to disrupt hydrophobic interactions with UBE2G2. (D) Cellular assay performed as in (B) with AUP1-FLAG mutants that disrupt interactions with UBE2G2 in vitro in (C). The data underlying this figure can be found in S1 Data. aa, amino acid; AUP1, ancient ubiquitous protein 1; CHX, cycloheximide; G2BR, UBE2G2 Binding Region; KO, knockout; WT, wild type.
Fig 8 Recruitment of UBE2G2 to the ER membrane and activation by G2BR^AUP1 is required for ERAD. (A) HT1080 or AUP1 KO cells were transfected with NHK-HA and either empty vector or MYC-UBE2G2 and NHK turnover assessed by CHX chase. (B) AUP1 KO cells were transfected with NHK-HA and GFP fusions of either a scrambled G2BR sequence (SCR) or G2BR^AUP1 and NHK turnover and levels of endogenous UBE2G2 assessed. Luciferase and β-actin served as transfection efficiency and gel loading controls, respectively. (C) AUP1 KO cells were transfected with NHK-HA, MYC-UBE2G2, and either GFP-SCR or GFP-G2BR^AUP1 and NHK turnover assessed. (D) Membrane fractionation was performed on HT1080 or AUP1 KO cells transfected with either empty vector or AUP1-FLAG and localization of UBE2G2 assessed by western blotting. Localization of β-actin (cytosol) and Calnexin (ER membrane) were used as controls for cytosolic (C) and membrane (M) fractions, respectively. (E) Membrane fractionation of AUP1 KO cells transfected with either MYC-UBE2G2 or TM-UBE2G2. (F) HT1080 cells were transfected with TM-UBE2G2 and its localization assessed by confocal microscopy. Images shown are from an optical section after deconvolution. HA-tagged UBE2J2, an ER-localized E2, serves as an ER marker. […]

GFP-G2BR^AUP1: GFP fusion of AUP1 aa 378 to 404 (SSWARQESLQERKQALYEYARRRFTER; also: GFP fusion; UniProt Q9Y679 378-404, looked up, fragment)
NHK degradation, soluble G2BR alone (GFP fusion overexpressed without UBE2G2, HT1080 AUP1 KO): insufficient to reconstitute NHK degradation | NHK degradation, soluble G2BR with UBE2G2 (GFP-G2BR^AUP1 co-expressed with MYC-UBE2G2, HT1080 AUP1 KO): did not restore NHK degradation | NHK degradation, soluble G2BR with TM-UBE2G2 (GFP-G2BR^AUP1 co-expressed with TM-UBE2G2, HT1080 AUP1 KO): fully restored

B1: UBE2G2: ERAD ubiquitin-conjugating enzyme (E2); purified in vitro, N-terminally MYC-tagged in cells (protein)
chain: MAGTALKRLMAEYKQLTLNPPEGIVAGPMNEENFFEWEALIMGPEDTCFEFGVFPAILSFPLDYPLSPPKMRFTCEMFHPNIYPDGRVCISILHAPGDDPMGYESSAERWSPVQSVEKILLSVVSMLAEPNDESGANVDASKMWRDDREQFYKIAKQIVQKSLGL
NHK degradation, UBE2G2 overexpression (UBE2G2 form transfected without G2BR, HT1080 AUP1 KO): did not restore NHK degradation
